Source: article PMC3265452 (PLoS Neglected Tropical Diseases, 2012)
Structures can show the parent of a compound that is named as a salt.

molecular target: AaDOP2 (Aedes aegypti, UniProt H6D5H2); experiment: AaDOP2 antagonist screen of the LOPAC1280 library (HEK-CRELuc-Aadop2 cells, luminescence); type: cell-based; conditions: not given
Sequence (H6D5H2 1-476): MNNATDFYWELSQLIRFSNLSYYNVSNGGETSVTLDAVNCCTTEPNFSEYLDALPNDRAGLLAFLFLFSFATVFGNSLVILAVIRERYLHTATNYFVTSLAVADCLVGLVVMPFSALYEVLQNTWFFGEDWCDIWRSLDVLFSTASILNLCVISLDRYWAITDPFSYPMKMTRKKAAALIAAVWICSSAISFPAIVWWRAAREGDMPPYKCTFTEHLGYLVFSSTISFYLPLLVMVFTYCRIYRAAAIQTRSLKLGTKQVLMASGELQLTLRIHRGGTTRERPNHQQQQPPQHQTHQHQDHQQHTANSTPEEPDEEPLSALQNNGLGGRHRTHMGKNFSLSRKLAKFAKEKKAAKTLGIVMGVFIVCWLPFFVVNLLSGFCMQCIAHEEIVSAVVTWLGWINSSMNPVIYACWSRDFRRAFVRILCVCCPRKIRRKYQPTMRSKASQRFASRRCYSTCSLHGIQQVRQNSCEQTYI

Row | SMILES | Compound effect (percent receptor signaling in presence of test compound, relative lux units relative to the SCH23390 control)
1 | Ic1ccccc1CNC1C2CCN(CC2)C1C(c1ccccc1)c1ccccc1.O=C(O)C(=O)O [Compound 725, L-703,606 oxalate] | 98
2 | C=CCN1CC[C@]23CCCC[C@H]2[C@H]1Cc1ccc(O)cc13 [Compound 726, Levallorphan tartrate] | 93
3 | Cl.Clc1ccc(N2CCN(Cc3c[nH]c4ncccc34)CC2)cc1 [Compound 728, L-745,870 hydrochloride] | 111
4 | O=C1N(c2ccccc2)c2ccccc2C1(Cc1ccncc1)Cc1ccncc1 [Compound 730, Linopirdine] | 106
5 | OC1(c2ccc(Cl)cc2)CCN(Cc2c[nH]c3ccccc23)CC1 [Compound 731, L-741,626] | 104
6 | COc1cc(CNC(=O)CCCCCCC(C)C)ccc1O [Compound 735, Dihydrocapsaicin] | 102
7 | Cc1cn[nH]c1.Cl [Compound 737, 4-Methylpyrazole hydrochloride] | 111
8 | COC(=O)Nc1nc2ccc(C(=O)c3cccs3)cc2[nH]1 [Compound 738, Nocodazole] | 89
9 | CNCCc1c[nH]c2ccc(O)cc12.O=C(O)C(=O)O [Compound 739, N-omega-Methyl-5-hydroxytryptamine oxalate salt] | 115
10 | C#CCN1C(C)=C(C(=O)OC)C(c2cccc([N+](=O)[O-])c2)C(C(=O)OCC)=C1C (stereo not shown) [Compound 741, MRS 1845] | 101
11 | CCCOC(=O)c1c(-c2ccccc2)nc(CC)c(C(=O)SCC)c1CCC [Compound 743, MRS 1523] | 101
12 | N[C@@H](Cc1ccc(N(CCCl)CCCl)cc1)C(=O)O [Compound 744, Melphalan] | 102
13 | COc1ccc2[nH]cc(CCN(C)C)c2c1.O=C(O)C(=O)O [Compound 745, 5-Methoxy DMT oxalate] | 104
14 | CC[C@H](C)C(=O)O[C@H]1CCC=C2C=C[C@H](C)[C@H](CC[C@@H]3C[C@@H](O)CC(=O)O3)[C@H]21 [Compound 748, Mevastatin] | 106
15 | COCc1nc2c([nH]1)c(=O)n(C)c(=O)n2CC(C)C [Compound 749, 8-Methoxymethyl-3-isobutyl-1-methylxanthine] | 107
16 | CC(C)c1ccc2c(c1)c(SC(C)(C)C)c(CC(C)(C)C(=O)O)n2Cc1ccc(Cl)cc1 [Compound 750, MK-886] | 65
17 | CC[C@@H](CO)NC(=O)[C@@H]1C=C2c3cccc4[nH]cc(c34)C[C@H]2N(C)C1 [Compound 752, Methylergonovine maleate] | 107
18 | CCOC(=O)[N-]c1cn(N2CCOCC2)n[o+]1 [Compound 753, Molsidomine] | 98
19 | Cc1nnc2ccc(-c3cccc(C(F)(F)F)c3)nn12 [Compound 754, 3-Methyl-6-(3-[trifluoromethyl]phenyl)-1,2,4-triazolo[4,3-b]pyridazine] | 87
20 | NC(=O)c1ncn([C@@H]2O[C@H](CO)[C@@H](O)[C@H]2O)c1O [Compound 755, Mizoribine] | 94
21 | CC[N+](CC)(CC)CCOc1ccc(/C=C/c2ccccc2)cc1 [Compound 757, MG 624] | 89

Row | SMILES | Compound effect (percent receptor signaling in presence of test compound, relative lux units relative to the SCH23390 control)
22 | CN[C@H](CC(=O)O)C(=O)O [Compound 758, N-Methyl-D-aspartic acid] | 97
23 | CCCCCCCCCCCCCCCCOCC(COCC(F)(F)F)OP(=O)(O)OC (stereo not shown) [Compound 760, MJ33] | 77
24 | CN1C[C@H](CNC(=O)OCc2ccccc2)C[C@@H]2c3cccc4c3c(cn4C)C[C@H]21 [Compound 761, Metergoline] | 33
25 | C#CCN(C)CCCOc1ccc(Cl)cc1Cl [Compound 763, Clorgyline hydrochloride] | 96
26 | CNc1ncnc2c1ncn2[C@H]1C[C@H](OP(=O)(O)O)[C@@H](COP(=O)(O)O)O1 [Compound 764, MRS 2179] | 105
27 | Cc1cnc(NC(=O)C2=C(O)c3ccccc3S(=O)(=O)N2C)s1 [Compound 765, Meloxicam sodium] | 115
28 | O=c1c(O)c(-c2ccc(O)cc2O)oc2cc(O)cc(O)c12 [Compound 766, Morin] | 117
29 | Nc1cc(N2CCCCC2)nc(N)[n+]1[O-] [Compound 767, Minoxidil] | 110
30 | COc1cc(CCN)ccc1O.Cl [Compound 768, 3-Methoxy-4-hydroxyphenethylamine hydrochloride] | 116
31 | Cc1ccc(Cl)c(Nc2ccccc2C(=O)O)c1Cl [Compound 769, Meclofenamic acid sodium] | 107
32 | Cc1[nH]c(=O)c(C#N)cc1-c1ccncc1 [Compound 770, Milrinone] | 104
33 | Cl.Cl.Cn1cnc(CCN)c1 [Compound 772, 1-Methylhistamine dihydrochloride] | 94
34 | CC(=O)Oc1cc(C(C)C)c(OCCN(C)C)cc1C [Compound 773, Moxisylyte hydrochloride] | 33
35 | CSC(N)=NCCC[C@H](N)C(=O)O [Compound 774, S-Methyl-L-thiocitrulline acetate] | 97
36 | COc1ccc2[nH]cc(CCNC(C)=O)c2c1 [Compound 775, Melatonin] | 104
37 | Cc1cccc(C#Cc2ccccc2)n1.Cl [Compound 778, 6-Methyl-2-(phenylethynyl)pyridine hydrochloride] | 74
38 | COCC(=O)O[C@]1(CCN(C)CCCc2nc3ccccc3[nH]2)CCc2cc(F)ccc2[C@@H]1C(C)C [Compound 779, Mibefradil dihydrochloride] | 93
39 | CNc1ncnc2c1ncn2[C@@H]1O[C@H](CO)[C@@H](O)[C@H]1O [Compound 780, N6-Methyladenosine] | 80
40 | Cc1ccccc1/C=C/C1=NCCN1 [Compound 783, Metrazoline oxalate] | 91
41 | CCCn1c(=O)c2[nH]c(-c3ccc(OCC(=O)Nc4ccc(C#N)cc4)cc3)nc2n(CCC)c1=O [Compound 785, MRS 1754] | 98
42 | COc1cc2c(cc1O)CC[C@@H]1[C@@H]2CC[C@]2(C)[C@@H](O)CC[C@@H]12 [Compound 786, 2-methoxyestradiol] | 99

same assay, conditions: 10 µM compound, 300 nM dopamine, 2 hr; hit = compound effect <20

Row | SMILES | Compound effect (percent receptor signaling in presence of test compound, relative lux units relative to the SCH23390 control) [%]
43 | Cl.Cl.Cl.Ic1ccc(N2CCN(Cc3c[nH]c4ncccc34)CC2)cc1 [Compound 729, L-750,667 trihydrochloride] | 107
44 | Cl.FC(F)(F)c1cc(CO[C@H]2CCCN[C@H]2c2ccccc2)cc(C(F)(F)F)c1 [Compound 732, L-733,060 hydrochloride] | 94
45 | CCN(CC)CCNC(=O)c1cc(Cl)c(N)cc1OC.Cl [Compound 733, Metoclopramide hydrochloride] | 101
46 | COc1ccc2cc([C@H](C)C(=O)[O-])ccc2c1.[Na+] [Compound 736, (-)-Naproxen sodium] | 105
47 | COc1nc(C)nc(Cl)c1NC1=NCCN1.Cl [Compound 740, Moxonidine hydrochloride] | 94
48 | CN1C[C@H](O)[C@@H](O)[C@H](O)[C@H]1CO [Compound 742, N-Methyl-1-deoxynojirimycin] | 101
49 | CC(C)NCC(O)c1cc(O)cc(O)c1.CC(C)NCC(O)c1cc(O)cc(O)c1.O=S(=O)(O)O (stereo not shown) [Compound 746, Metaproterenol hemisulfate] | 111
50 | Cc1cccc(C)c1OCC(C)N.Cl (stereo not shown) [Compound 751, Mexiletene hydrochloride] | 105
51 | CSC(=N)N.CSC(=N)N.O=S(=O)(O)O [Compound 756, S-Methylisothiourea hemisulfate] | 99
52 | C[C@](N)(CCP(=O)(O)O)C(=O)O.Cl [Compound 781, (S)-MAP4 hydrochloride] | 100
